pIC50: −log10 of the molar value.
What follows are compounds tested against T1, AHR (Homo sapiens, UniProt P35869) (assay: DRE-Luciferase Reporter Assay, HepG2 AhR-Lucia reporter cells). Details: with AHR activating ligand at EC50, read-out: HepG2-Luc IC50.
T1 construct: other cell line with a DRE-luciferase reporter stably transfected; endogenous in cells; host or cells: HepG2 AhR-Lucia reporter cells
T1 sequence (P35869 11-848): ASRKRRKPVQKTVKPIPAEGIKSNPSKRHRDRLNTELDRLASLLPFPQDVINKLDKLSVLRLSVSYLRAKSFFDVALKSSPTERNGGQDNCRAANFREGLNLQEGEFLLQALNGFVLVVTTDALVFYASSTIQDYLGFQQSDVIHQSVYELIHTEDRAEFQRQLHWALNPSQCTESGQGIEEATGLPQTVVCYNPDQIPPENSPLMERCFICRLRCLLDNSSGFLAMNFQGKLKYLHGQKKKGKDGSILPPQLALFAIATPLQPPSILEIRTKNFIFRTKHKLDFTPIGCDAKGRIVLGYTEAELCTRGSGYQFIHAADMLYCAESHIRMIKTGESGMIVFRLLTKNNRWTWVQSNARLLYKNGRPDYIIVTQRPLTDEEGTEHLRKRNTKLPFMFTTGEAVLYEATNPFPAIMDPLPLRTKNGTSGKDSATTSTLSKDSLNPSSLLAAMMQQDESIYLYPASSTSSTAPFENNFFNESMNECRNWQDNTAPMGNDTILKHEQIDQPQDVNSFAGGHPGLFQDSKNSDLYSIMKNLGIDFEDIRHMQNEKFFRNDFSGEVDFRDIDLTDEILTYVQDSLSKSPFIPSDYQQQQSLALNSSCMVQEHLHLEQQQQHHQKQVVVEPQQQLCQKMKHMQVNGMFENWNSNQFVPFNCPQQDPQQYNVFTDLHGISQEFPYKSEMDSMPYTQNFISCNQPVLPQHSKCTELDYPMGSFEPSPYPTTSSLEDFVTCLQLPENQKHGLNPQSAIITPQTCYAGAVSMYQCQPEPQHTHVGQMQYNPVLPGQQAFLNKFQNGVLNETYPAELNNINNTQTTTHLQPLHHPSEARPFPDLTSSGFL
Assay type: cell-based
Text: AHR binds to Dioxin Responsive Elements (DRE) upstream of genes that it activates. One measure of AHR activity is activation of a reporter gene, such as luciferase, downstream of one or multiple DRE elements. Luciferase activity will reflect activation and inhibition of AHR in the cells expressing his reporter. 20000 Human HepG2 liver carcinoma—AhR-Lucia reporter cells or Human HT29 colon adenocarcinoma—AhR reporter cells or other cell line with a DRE-luciferase reporter stably transfected were plated in Eagle's Minimal Essential Medium, 10% heat-inactivated FBS, 1× non-essential amino acids Pen-Strep (10,000 U/mL) and Normocin (100 ug/mL) in plates (96-well, 384-well or other plates) and incubated overnight at 37° C. in a CO2 incubator and treated with and without AhR antagonists at a log dilution starting at 100 uM.
After 1 hr that cells were plated an AHR activating ligand, such as TCDD, kynurenine, ITE (2-(1H-indole-3-ylcarbonyl)-4-thiazolecarboxylic methyl ester), VAF347, BNF (beta-naphthoflavone), FICZ (6-formylindolo(3,2-b) carbazole) or other AHR ligands at their specific EC50 concentration, were added to the cells with or without AHR antagonist.
Cells were incubated for 24 or 48 hours or another time point and then, supernatant was analyzed for determination of luciferase activity as a read-out of the AHR activation or inhibition. Luciferase was measured with the commercial kit QUANTI-Luc™ assay solution kit from Invivogen following the manufacturer's instructions.
The level of luciferase with only agonist ligand added was the maximum signal while the luciferase with […] was the minimum signal. IC50 values were determined as the concentration which inhibits half of the luciferase activity.

SMILES	pIC50
COCCc1cc2c(=O)n([C@@H](C)CO)cnc2c(-c2cccnc2)n1 [Compound 192, (S)-3-(1-hydroxypropan-2-yl)-6-(2-methoxyethyl)-8-(pyridin-3-yl)pyrido[3,4-d]pyrimidin-4(3H)-one]	< 6.30
C[C@@H](CO)n1cnc2c(-c3cnn(C)c3)nc(-c3cnc(C(F)(F)F)s3)cc2c1=O [Compound 168, (S)-3-(1-hydroxypropan-2-yl)-8-(1-methyl-1H-pyrazol-4-yl)-6-(2-(trifluoromethyl)thiazol-5-yl)pyrido[3,4-d]pyrimidin-4(3H)-one]	> 7.00
Cn1cc(-c2nc(-c3ccc(C4CC4)nc3)cc3c(=O)n(C[C@@H](O)C(F)(F)F)cnc23)cn1 [Compound 135, (R)-6-(6-cyclopropylpyridin-3-yl)-8-(1-methyl-1H-pyrazol-4-yl)-3-(3,3,3-trifluoro-2-hydroxypropyl)pyrido[3,4-d]pyrimidin-4(3H)-one]	> 7.00
Cn1cc(-c2nc(-c3ccc(C(F)(F)F)cn3)cc3c(=O)n([C@@H]4COC[C@@H]4O)cnc23)cn1 [Compound 149, 3-((3R,4R)-4-hydroxytetrahydrofuran-3-yl)-8-(1-methyl-1H-pyrazol-4-yl)-6-(5-(trifluoromethyl)pyridin-2-yl)pyrido[3,4-d]pyrimidin-4(3H)-one]	> 7.00
C[C@@H](C(=O)N[C@@H]1COC[C@H]1O)n1cnc2c(-c3cccnc3)nc(-c3ccc(C(F)(F)F)nc3)cc2c1=O [Compound 158, (S)—N-((3R,4S)-4-hydroxytetrahydrofuran-3-yl)-2-(4-oxo-8-(pyridin-3-yl)-6-(6-(trifluoromethyl)pyridin-3-yl)pyrido[3,4-d]pyrimidin-3(4H)-yl)propenamide]	6.30 to 7.00
C[C@@H](CO)n1cnc2c(-n3cccn3)nc(-c3ccc(Cl)cc3)cc2c1=O [Compound 166, (S)-6-(4-chlorophenyl)-3-(1-hydroxypropan-2-yl)-8-(1H-pyrazol-1-yl)pyrido[3,4-d]pyrimidin-4(3H)-one]	> 7.00
O=c1c2cc(-c3ccc(Cl)cc3)nc(-c3cccnc3)c2ncn1C1COCC1O (racemic) [Compound 32]	> 7.00
COC[C@H](C)n1cnc2c(-c3cccnc3)nc(-c3ccc(C)cc3)cc2c1=O [Compound 45, (S)-3-(1-methoxypropan-2-yl)-8-(pyridin-3-yl)-6-(p-tolyl)pyrido[3,4-d]pyrimidin-4(3H)-one]	> 7.00
O=c1c2cc(-c3cnc(C(F)(F)F)s3)nc(-c3cccnc3)c2ncn1[C@@H]1COC[C@H]1O [Compound 173, 3-((3R,4S)-4-hydroxytetrahydrofuran-3-yl)-8-(pyridin-3-yl)-6-(2-(trifluoromethyl)thiazol-5-yl)pyrido[3,4-d]pyrimidin-4(3H)-one]	6.30 to 7.00
Cn1cc(-c2nc(-c3ccc(Cl)cc3)cc3c(=O)n(CC(O)C(F)(F)F)cnc23)cn1 (stereo not shown) [Compound 15]	> 7.00
Cn1cc(-c2nc(-c3cnc(C(F)(F)F)s3)cc3c(=O)n(CC(C)(C)O)cnc23)cn1 [Compound 170, 3-(2-hydroxy-2-methylpropyl)-8-(1-methyl-1H-pyrazol-4-yl)-6-(2-(trifluoromethyl)thiazol-5-yl)pyrido[3,4-d]pyrimidin-4(3H)-one]	> 7.00
C[C@@H](CO)n1cnc2c(-n3cccn3)nc(-c3ccc(C(F)(F)F)nc3)cc2c1=O [Compound 165, (S)-3-(1-hydroxypropan-2-yl)-8-(1H-pyrazol-1-yl)-6-(6-(trifluoromethyl)pyridin-3-yl)pyrido[3,4-d]pyrimidin-4(3H)-one]	> 7.00
Cn1cnc2c(-c3cccnc3)nc(-c3ccc(OC(F)(F)F)cc3)cc2c1=O [Compound 28]	> 7.00
Cc1ncsc1-c1cc2c(=O)n([C@@H](C)CO)cnc2c(-c2cccnc2)n1 [Compound 65]	6.30 to 7.00
C[C@@H](CO)n1cnc2c(-c3ccc(C(F)(F)F)nc3)nc(-c3ccc(C(F)(F)F)nc3)cc2c1=O [Compound 69]	6.30 to 7.00
Cc1cc(Cl)ccc1-c1cc2c(=O)n(CC(C)(C)O)cnc2c(-c2cnn(C)c2)n1 [Compound 61]	6.30 to 7.00
CC(C)(O)Cn1cnc2c(-c3cnn(C(F)(F)F)c3)nc(-c3ccc(C(F)(F)F)nc3)cc2c1=O [Compound 94]	> 7.00

SMILES	pIC50
O=c1c2cc(-c3ccc(Cl)cc3)nc(-c3cccc(F)c3)c2ncn1C[C@@H](O)C(F)(F)F (stereo in doubt) [Compound 42]	> 7.00
C[C@@H](CO)n1cnc2c(-c3cccnc3)nc(-c3cncs3)cc2c1=O [Compound 84]	< 6.30
Cn1cc(-c2nc(-c3ccc(C(F)(F)F)cn3)cc3c(=O)n(C[C@H](O)C(F)(F)F)cnc23)cn1 [Compound 147]	> 7.00
C[C@@H](CO)n1cnc2c(C3=CCCCC3)nc(-c3ccc(C(F)(F)F)cn3)cc2c1=O [Compound 188, (S)-8-(cyclohex-1-en-1-yl)-3-(1-hydroxypropan-2-yl)-6-(5-(trifluoromethyl)pyridin-2-yl)pyrido[3,4-d]pyrimidin-4(3H)-one]	6.30 to 7.00
Cc1ccc(-c2cc3c(=O)n([C@@H](C)CO)cnc3c(-c3cccnc3)n2)cn1 [Compound 98]	> 7.00
C[C@@H](CO)n1cnc2c(-c3cccc4c3OCO4)nc(-c3ccc(Cl)cc3)cc2c1=O [Compound 3]	6.30 to 7.00
C[C@@H](CO)n1cnc2c(-c3ccccn3)nc(-c3ccc(C(F)(F)F)nc3)cc2c1=O [Compound 180, (S)-3-(1-hydroxypropan-2-yl)-8-(pyridin-2-yl)-6-(6-(trifluoromethyl)pyridin-3-yl)pyrido[3,4-d]pyrimidin-4(3H)-one]	6.30 to 7.00
C[C@@H](CO)n1cnc2c(-c3cccnc3)nc(-c3ccc(C(=O)O)nc3)cc2c1=O [Compound 97]	< 6.30
CC(C)c1ncc(-c2cc3c(=O)n([C@@H](C)CO)cnc3c(-c3cccnc3)n2)s1 [Compound 67]	> 7.00
C[C@@H](CO)n1cnc2c(C3=CCCN(C)C3)nc(-c3ccc(C(F)(F)F)nc3)cc2c1=O [Compound 91]	6.30 to 7.00
O=c1c2cc(-c3ccc(C(F)(F)F)nc3)nc(-c3cccnc3)c2ncn1[C@@H]1CCS(=O)(=O)C1 [Compound 107, (R)-3-(1,1-dioxidotetrahydrothiophen-3-yl)-8-(pyridin-3-yl)-6-(6-(trifluoromethyl)pyridin-3-yl)pyrido[3,4-d]pyrimidin-4(3H)-one]	> 7.00
C[C@@H](CO)n1cnc2c(-c3cnn(C)c3)nc(-c3ccccc3)cc2c1=O [Compound 26]	6.30 to 7.00
O=c1c2cc(-c3ccc(C(F)(F)F)nc3)nc(-c3cccnc3)c2ncn1C1CCCC1 [Compound 132, 3-cyclopentyl-8-(pyridin-3-yl)-6-(6-(trifluoromethyl)pyridin-3-yl)pyrido[3,4-d]pyrimidin-4(3H)-one]	> 7.00
C[C@@H](CO)n1cnc2c(-c3ccc(=O)[nH]c3)nc(-c3ccc(Cl)cc3)cc2c1=O [Compound 2]	6.30 to 7.00
CCN(CC)c1nc(-c2ccc(C(F)(F)F)nc2)cc2c(=O)n([C@@H](C)CO)cnc12 [Compound 174, (S)-8-(diethylamino)-3-(1-hydroxypropan-2-yl)-6-(6-(trifluoromethyl)pyridin-3-yl)pyrido[3,4-d]pyrimidin-4(3H)-one]	> 7.00
C[C@@H](CO)n1cnc2c(-n3cccn3)nc(-c3ccc(C(F)(F)F)cn3)cc2c1=O [Compound 167, (S)-3-(1-hydroxypropan-2-yl)-8-(1H-pyrazol-1-yl)-6-(5-(trifluoromethyl)pyridin-2-yl)pyrido[3,4-d]pyrimidin-4(3H)-one]	6.30 to 7.00
Cc1cnc(-c2cc3c(=O)n([C@@H](C)CO)cnc3c(-c3cccnc3)n2)nc1 [Compound 187, (S)-3-(1-hydroxypropan-2-yl)-6-(5-methylpyrimidin-2-yl)-8-(pyridin-3-yl)pyrido[3,4-d]pyrimidin-4(3H)-one]	< 6.30
